According to patent US20240301409A1, “Chemically Modified Small Activating RNA” (RACTIGEN THERAPEUTICS, priority 2021, published 2024):

System: T24 cells
Test: Cellular proliferation assay (CCK8) in T24 cells, alone and combined with Mitomycin C or valrubicin
Format: cell-based, human
How it was run: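 Cells transfected with saRNA RAG1-40-31 (0.1–50 nM) for 24 h, then Mitomycin C or valrubicin (1–10000 nM) added in paired concentrations; single-agent saRNA at 10 nM for 72 h. Viability by CCK8 absorbance at 450 nm after 1 h at 37 °C, as % of blank transfection control.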

RAG1-40-31: saRNA duplex: sense fCfCAACUCAUUCUCCAAG*U*C (SEQ ID NO 16); antisense U*A*fCfUfUGGAGAAfUGAGfUfUGG*fC*A (SEQ ID NO 12) (sense CCAACUCAUUCUCCAAGUC; antisense UACUUGGAGAAUGAGUUGGCA; 2'-F and phosphorothioate modifications; modified_base (1)..(2) (1,2)=2′-fluoro; modified_base (17)..(19) (17,18,19)=phosphorothioate (PS) backbone modification; modified_base (2)..(21) (2,3,19,20,21)=phosphorothioate (PS) backbone modification; modified_base (3)..(20) (3,4,5,12,16,17,20)=2′-fluoro)
Relative proliferation proportion of T24 cells (RAG1-40-31 0.1 nM + MMC 1 nM): 93.6%
Relative proliferation proportion of T24 cells (RAG1-40-31 0.1 nM + MMC 10 nM): 94.5%
Relative proliferation proportion of T24 cells (RAG1-40-31 0.1 nM + MMC 100 nM): 63.3%
Relative proliferation proportion of T24 cells (RAG1-40-31 0.1 nM + MMC 1000 nM): 17.6%
Relative proliferation proportion of T24 cells (RAG1-40-31 0.1 nM + MMC 10000 nM): 5.6%
Relative proliferation proportion of T24 cells (RAG1-40-31 0.1 nM + valrubicin 1 nm): 96.3%
Relative proliferation proportion of T24 cells (RAG1-40-31 0.1 nM + valrubicin 10 nm): 97.8%
Relative proliferation proportion of T24 cells (RAG1-40-31 0.1 nM + valrubicin 100 nm): 93.4%
Relative proliferation proportion of T24 cells (RAG1-40-31 0.1 nM + valrubicin 1000 nm): 59.6%
Relative proliferation proportion of T24 cells (RAG1-40-31 0.1 nM + valrubicin 10000 nm): 18.9%
Relative proliferation proportion of T24 cells (RAG1-40-31 0.1 nM, Control (no MMC)): 97.9%
Relative proliferation proportion of T24 cells (RAG1-40-31 0.1 nM, Control (no valrubicin)): 93.5%
Relative proliferation proportion of T24 cells (RAG1-40-31 0.5 nM + MMC 1 nM): 90.1%
Relative proliferation proportion of T24 cells (RAG1-40-31 0.5 nM + MMC 10 nM): 90.0%
Relative proliferation proportion of T24 cells (RAG1-40-31 0.5 nM + MMC 100 nM): 59.8%
Relative proliferation proportion of T24 cells (RAG1-40-31 0.5 nM + MMC 1000 nM): 16.8%
Relative proliferation proportion of T24 cells (RAG1-40-31 0.5 nM + MMC 10000 nM): 5.5%
Relative proliferation proportion of T24 cells (RAG1-40-31 0.5 nM + valrubicin 1 nm): 91.3%
Relative proliferation proportion of T24 cells (RAG1-40-31 0.5 nM + valrubicin 10 nm): 94.3%
Relative proliferation proportion of T24 cells (RAG1-40-31 0.5 nM + valrubicin 100 nm): 91.4%
Relative proliferation proportion of T24 cells (RAG1-40-31 0.5 nM + valrubicin 1000 nm): 51.8%
Relative proliferation proportion of T24 cells (RAG1-40-31 0.5 nM + valrubicin 10000 nm): 19.5%
Relative proliferation proportion of T24 cells (RAG1-40-31 0.5 nM, Control (no MMC)): 91.7%
Relative proliferation proportion of T24 cells (RAG1-40-31 0.5 nM, Control (no valrubicin)): 84.8%
Relative proliferation proportion of T24 cells (RAG1-40-31 1 nM + MMC 1 nM): 81.9%
Relative proliferation proportion of T24 cells (RAG1-40-31 1 nM + MMC 10 nM): 78.2%
Relative proliferation proportion of T24 cells (RAG1-40-31 1 nM + MMC 100 nM): 55.6%
Relative proliferation proportion of T24 cells (RAG1-40-31 1 nM + MMC 1000 nM): 14.7%
Relative proliferation proportion of T24 cells (RAG1-40-31 1 nM + MMC 10000 nM): 5.4%
Relative proliferation proportion of T24 cells (RAG1-40-31 1 nM + valrubicin 1 nm): 76.0%
Relative proliferation proportion of T24 cells (RAG1-40-31 1 nM + valrubicin 10 nm): 71.3%
Relative proliferation proportion of T24 cells (RAG1-40-31 1 nM + valrubicin 100 nm): 67.6%
Relative proliferation proportion of T24 cells (RAG1-40-31 1 nM + valrubicin 1000 nm): 49.6%
Relative proliferation proportion of T24 cells (RAG1-40-31 1 nM + valrubicin 10000 nm): 16.6%
Relative proliferation proportion of T24 cells (RAG1-40-31 1 nM, Control (no MMC)): 85.9%
Relative proliferation proportion of T24 cells (RAG1-40-31 1 nM, Control (no valrubicin)): 79.7%
Relative proliferation proportion of T24 cells (RAG1-40-31 5 nM + MMC 1 nM): 37.4%
Relative proliferation proportion of T24 cells (RAG1-40-31 5 nM + MMC 10 nM): 36.3%
Relative proliferation proportion of T24 cells (RAG1-40-31 5 nM + MMC 100 nM): 26.0%
Relative proliferation proportion of T24 cells (RAG1-40-31 5 nM + MMC 1000 nM): 7.7%
Relative proliferation proportion of T24 cells (RAG1-40-31 5 nM + MMC 10000 nM): 3.1%
Relative proliferation proportion of T24 cells (RAG1-40-31 5 nM + valrubicin 1 nm): 37.2%
Relative proliferation proportion of T24 cells (RAG1-40-31 5 nM + valrubicin 10 nm): 33.3%
Relative proliferation proportion of T24 cells (RAG1-40-31 5 nM + valrubicin 100 nm): 42.1%
Relative proliferation proportion of T24 cells (RAG1-40-31 5 nM + valrubicin 1000 nm): 25.7%
Relative proliferation proportion of T24 cells (RAG1-40-31 5 nM + valrubicin 10000 nm): 8.0%
Relative proliferation proportion of T24 cells (RAG1-40-31 5 nM, Control (no MMC)): 42.1%
Relative proliferation proportion of T24 cells (RAG1-40-31 5 nM, Control (no valrubicin)): 38.5%
Relative proliferation proportion of T24 cells (RAG1-40-31 10 nM + MMC 1 nM): 19.8%
Relative proliferation proportion of T24 cells (RAG1-40-31 10 nM + MMC 10 nM): 27.0%
Relative proliferation proportion of T24 cells (RAG1-40-31 10 nM + MMC 100 nM): 16.7%
Relative proliferation proportion of T24 cells (RAG1-40-31 10 nM + MMC 1000 nM): 5.3%
Relative proliferation proportion of T24 cells (RAG1-40-31 10 nM + MMC 10000 nM): 2.5%
Relative proliferation proportion of T24 cells (RAG1-40-31 10 nM + valrubicin 1 nm): 27.2%
Relative proliferation proportion of T24 cells (RAG1-40-31 10 nM + valrubicin 10 nm): 23.3%
Relative proliferation proportion of T24 cells (RAG1-40-31 10 nM + valrubicin 100 nm): 26.9%
Relative proliferation proportion of T24 cells (RAG1-40-31 10 nM + valrubicin 1000 nm): 21.7%
Relative proliferation proportion of T24 cells (RAG1-40-31 10 nM + valrubicin 10000 nm): 5.1%
Relative proliferation proportion of T24 cells (RAG1-40-31 10 nM, Control (no MMC)): 22.0%
Relative proliferation proportion of T24 cells (RAG1-40-31 10 nM, Control (no valrubicin)): 23.9%
Relative proliferation proportion of T24 cells (RAG1-40-31 25 nM + MMC 1 nM): 15.4%
Relative proliferation proportion of T24 cells (RAG1-40-31 25 nM + MMC 10 nM): 20.9%
Relative proliferation proportion of T24 cells (RAG1-40-31 25 nM + MMC 100 nM): 12.4%
Relative proliferation proportion of T24 cells (RAG1-40-31 25 nM + MMC 1000 nM): 4.1%
Relative proliferation proportion of T24 cells (RAG1-40-31 25 nM + MMC 10000 nM): 1.9%
Relative proliferation proportion of T24 cells (RAG1-40-31 25 nM + valrubicin 1 nm): 16.5%
Relative proliferation proportion of T24 cells (RAG1-40-31 25 nM + valrubicin 10 nm): 20.4%
Relative proliferation proportion of T24 cells (RAG1-40-31 25 nM + valrubicin 100 nm): 19.5%
Relative proliferation proportion of T24 cells (RAG1-40-31 25 nM + valrubicin 1000 nm): 13.2%
Relative proliferation proportion of T24 cells (RAG1-40-31 25 nM + valrubicin 10000 nm): 3.4%
Relative proliferation proportion of T24 cells (RAG1-40-31 25 nM, Control (no MMC)): 13.6%
Relative proliferation proportion of T24 cells (RAG1-40-31 25 nM, Control (no valrubicin)): 15.1%
Relative proliferation proportion of T24 cells (RAG1-40-31 50 nM + MMC 1 nM): 20.1%
Relative proliferation proportion of T24 cells (RAG1-40-31 50 nM + MMC 10 nM): 19.8%
Relative proliferation proportion of T24 cells (RAG1-40-31 50 nM + MMC 100 nM): 10.8%
Relative proliferation proportion of T24 cells (RAG1-40-31 50 nM + MMC 1000 nM): 4.2%
Relative proliferation proportion of T24 cells (RAG1-40-31 50 nM + MMC 10000 nM): 2.1%
Relative proliferation proportion of T24 cells (RAG1-40-31 50 nM + valrubicin 1 nm): 18.4%
Relative proliferation proportion of T24 cells (RAG1-40-31 50 nM + valrubicin 10 nm): 18.8%
Relative proliferation proportion of T24 cells (RAG1-40-31 50 nM + valrubicin 100 nm): 18.7%
